Among the test systems are A498 renal; NCI-H23 lung; NCI-H460 lung; NCI-H522 lung; SK-MEL-5 melanoma; SK-OV-3 ovarian; TK-10 renal; UO-31 renal; RXF 393 renal.
Holding throughout (test): growth of human tumour cells (NCI), 48 h

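Step 1: Grow cells in 96-well plates. Step 2: Expose to compound for 48 hours at 5 concentrations. Step 3: Interpolate endpoints linearly; if unreached, use highest concentration. The concentration for full growth arrest is given as TGI.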

As for `O=C(CC(=O)c1cccc2ccccc12)C(=O)Nc1ccc(Cl)cc1`, the TGI with A498 renal, in the assay on NCI-H23 lung, in the assay on NCI-H460 lung, with NCI-H522 lung, in the assay on SK-MEL-5 melanoma and with SK-OV-3 ovarian was over 100 µM in each case. Besides, the TGI in the assay on TK-10 renal and with UO-31 renal was over 100 µM each time.

With `CN(C)N=Nc1ccc(C(N)=O)cc1`, the TGI in the assay with A498 renal, in the assay with NCI-H23 lung, with NCI-H460 lung, in the assay with NCI-H522 lung, in the assay with RXF 393 renal and in the assay with SK-MEL-5 melanoma was over 100 µM each time. For the same compound, the TGI in the assay on SK-OV-3 ovarian, in the assay with TK-10 renal and in the assay with UO-31 renal was over 100 µM in each case.

Take `COc1ccccc1N1C(=O)C2c3[nH]c4ccccc4c3C3CCC(C(C)(C)C)CC3C2C1=O` (centres undefined): the TGI with A498 renal, with NCI-H23 lung, with NCI-H522 lung, with RXF 393 renal, in the assay on SK-MEL-5 melanoma and in the assay on SK-OV-3 ovarian was over 100 µM in each case. Besides, the TGI in the assay with UO-31 renal is over 100 µM.

For the compound `CNS(=O)(=O)NNS(=O)(=O)c1ccccc1`, the TGI with A498 renal, in the assay on NCI-H23 lung, with NCI-H460 lung, in the assay with NCI-H522 lung, with RXF 393 renal and with SK-MEL-5 melanoma was over 100 µM each time. Moreover, the TGI in the assay on SK-OV-3 ovarian, in the assay with TK-10 renal and with UO-31 renal was over 100 µM throughout.

Take `COC(=O)/C(C#N)=C1\NC(=O)c2ccccc21`: the TGI with A498 renal, in the assay with NCI-H23 lung, in the assay with NCI-H460 lung, in the assay on NCI-H522 lung, with RXF 393 renal and with SK-MEL-5 melanoma was over 100 µM each time. Besides, the TGI in the assay on SK-OV-3 ovarian, in the assay with TK-10 renal and in the assay on UO-31 renal was over 100 µM throughout.

As for `COc1cc2ccnc([C@@H](OC(=O)c3ccccc3)c3ccc(OC)c(OC)c3OC)c2cc1OC`, the TGI in the assay on A498 renal is over 100 µM; in the assay on NCI-H23 lung, over 100 µM; in the assay on NCI-H460 lung, over 100 µM; with NCI-H522 lung, over 100 µM; in the assay with RXF 393 renal, over 100 µM; with SK-MEL-5 melanoma it was 56.6 µM. The TGI was over 100 µM in the assay with SK-OV-3 ovarian, over 100 µM with TK-10 renal and 76.3 µM with UO-31 renal.

As to `CCn1c(C)nn2c(=O)c3ccccc3nc2c1=O`, the TGI in the assay with A498 renal, with NCI-H23 lung, in the assay on NCI-H460 lung, in the assay on SK-MEL-5 melanoma, in the assay with SK-OV-3 ovarian and in the assay on TK-10 renal was over 100 µM each time.

In the case of `CCN(CC)CCSc1c2ccccc2nc2cc(NCC(=O)Nc3ccccc3-c3ccccc3NC(=O)CNc3ccc4c(SCCN(CC)CC)c5ccccc5nc4c3)ccc12`, the TGI in the assay on A498 renal, with NCI-H23 lung, in the assay with NCI-H460 lung, with NCI-H522 lung, with RXF 393 renal and in the assay on SK-MEL-5 melanoma was over 100 µM in each case. Moreover, the TGI in the assay with SK-OV-3 ovarian, with TK-10 renal and with UO-31 renal was over 100 µM each time.

In the case of `COC(=O)C1(C(C)C)CCc2c(OC)ccc(OC)c2C1=O` (centres undefined), the TGI in the assay with A498 renal, in the assay on NCI-H460 lung, in the assay on NCI-H522 lung, in the assay with SK-MEL-5 melanoma, with SK-OV-3 ovarian and with TK-10 renal was over 100 µM in each case. In the assay on UO-31 renal, this compound came in with a TGI of over 100 µM.

Turning to `CCOC(=O)C(C)(C)Oc1ccc2c(-c3ccccc3)cc(=O)oc2c1`, the TGI was over 100 µM with A498 renal; over 100 µM in the assay with NCI-H23 lung; over 100 µM with NCI-H460 lung; 26.9 µM in the assay on SK-MEL-5 melanoma; over 100 µM in the assay on TK-10 renal; 76 µM with UO-31 renal.

As for `COC(=O)c1ccccc1NC(=O)C(=O)Cc1nc2c3c(ccc2[nH]c1=O)C(=O)c1ccccc1C3=O`, the TGI with A498 renal was over 100 µM; with NCI-H23 lung, 47.2 µM; with NCI-H460 lung, over 100 µM; with NCI-H522 lung it was 35.7 µM; in the assay with RXF 393 renal, 26.3 µM; with SK-MEL-5 melanoma, 13.6 µM. Further, the TGI in the assay on SK-OV-3 ovarian is over 100 µM; in the assay with TK-10 renal, 96.4 µM; in the assay with UO-31 renal it was over 100 µM.

For `CN(C)C(=S)N=C(Nc1ccccc1)Nc1ccccc1`, the TGI with A498 renal, in the assay on NCI-H23 lung, in the assay on NCI-H460 lung, with NCI-H522 lung, in the assay with RXF 393 renal and with SK-MEL-5 melanoma was over 100 µM in each case. Further, the TGI with SK-OV-3 ovarian, in the assay on TK-10 renal and with UO-31 renal was over 100 µM throughout.

Turning to `NC1=NCCC1(c1ccccc1)c1ccccn1` (centres undefined), the TGI in the assay on A498 renal, in the assay on NCI-H23 lung, in the assay with NCI-H460 lung, in the assay with NCI-H522 lung, in the assay on RXF 393 renal and in the assay with SK-MEL-5 melanoma was over 100 µM each time. The TGI in the assay on SK-OV-3 ovarian and in the assay with TK-10 renal was over 100 µM throughout.

In the case of `Cc1cc(N(CCC#N)CCC#N)ccc1N=Nc1ccc(S(N)(=O)=O)cc1`, the TGI with A498 renal, in the assay with NCI-H23 lung, with NCI-H522 lung, with RXF 393 renal, with SK-MEL-5 melanoma and with SK-OV-3 ovarian was over 100 µM each time. Also, the TGI in the assay on TK-10 renal and in the assay on UO-31 renal was over 100 µM in each case.

In the case of `OCC1=CC(NC2CC(CO)C(O)C(O)C2O)C(O)C(O)C1O` (centres undefined), the TGI with NCI-H23 lung, with NCI-H460 lung, with NCI-H522 lung, in the assay on RXF 393 renal, in the assay on SK-OV-3 ovarian and in the assay with TK-10 renal was over 100 µM throughout. The TGI in the assay with UO-31 renal is over 100 µM.

Regarding `NC(=O)NO.O.O.O.O.O.O.O.O.O.O.O.[Ge].[Ge].[Ge].[Ge].[Ge].[O]=[Ge].[O]=[Ge].[O]=[Ge].[O]=[Ge].[O]=[Ge][OH]`, the TGI in the assay on A498 renal, with NCI-H23 lung, in the assay with NCI-H460 lung, with NCI-H522 lung, in the assay on RXF 393 renal and in the assay on SK-MEL-5 melanoma was over 100 µM throughout. Also, the TGI in the assay with SK-OV-3 ovarian, with TK-10 renal and in the assay on UO-31 renal was over 100 µM each time.

For the origin of these results see PubChem BioAssay (NCI).
